Source: US20150259429A1, “CLUSTER OF DIFFERENTIATION 36 (CD36) AS A THERAPEUTIC TARGET FOR HIV INFECTION” (INSTITUT CURIE, priority 2012, published 2015)
Where a SMILES comes first, the peptide text is derived from it. [ ]: non-standard residue; d: D form. dTrp(2-Me) = Cc1[nH]c2ccccc2c1C[C@@H](N)C(=O)O

Tests used:
CD36 [1] = conditions: binding site competition; cited from earlier work
CD36 [2] = conditions: cited from earlier work
[3] = test system: HIV-1-infected primary macrophages; experiment: p24 Gag release by HIV-1-infected macrophages after siRNA transfection (ELISA); conditions: Tsg101 knock down (positive control) compared with CD36 silencing
[4] = target: CD36 (human), on primary macrophages or HeLa-CD36 cells (human) (UniProt P16671); experiment: cell-based or functional assay
[5] = test system: HIV-1-infected macrophages; experiment: CD36 mAb blocking assay: p24 in supernatant and cell lysate of HIV-1-infected macrophages (ELISA); conditions: overnight exposure, comparison with CD36 ligands (FIG. 15E)

## Cc1[nH]c2ccccc2c1C[C@@H](NC(=O)[C@@H](N)Cc1cnc[nH]1)C(=O)N[C@@H](C)C(=O)N[C@@H](Cc1c[nH]c2ccccc12)C(=O)N[C@H](Cc1ccccc1)C(=O)N[C@@H](CCCCN)C(N)=O [Hexarelin, hexarelin] (H-H[dTrp(2-Me)]AW[dF]K-NH2)
CD36 [1]
  CD36-mediated uptake of oxLDLs: blocks

## Cc1c(C)c2c(c(C)c1O)CC[C@@](C)(CCC[C@H](C)CCC[C@H](C)CCCC(C)C)O2 [α-tocopherol]
CD36 [2]
  uptake of oxLDLs into macrophages: reduce
CD36 [2]; macrophages
  expression of CD36: reduce

## CAGUUUAUCAUUCAAGUGUAA (listed as RNA, chemistry not given here) [Tsg101]
[3]
  extent of the inhibition of p24 release: similar

## CD36-specific mAb clone CLB-IVC7 (Immunotools) (antibody)
[4]
  p24 release in the culture supernatant of HIV-1-infected macrophages (ELISA), titration of the mAb: 32 ng/mL

## Trombospondin-1: endogenous ligand of CD36
[5]
  release of p24: none of the two ligands reduced

## type-I Collagen: endogenous ligand of CD36, purchased from Sigma
[5]
  release of p24: none of the two ligands reduced
